Reference: patent US8232406B2, “c-MET protein kinase inhibitors” (Vertex Pharmaceuticals Incorporated, priority 2006, dated 2012)

Molecular target: c-MET (Homo sapiens, UniProt P08581)
Test: Ki determination for the inhibition of c-MET (standard radiometric 33P-ATP kinase assay, polyE4Y substrate)
Type: biochemical
Details: 1.0 nM c-Met, 35 μM ATP, 0.5 mg/mL polyE4Y, 20 min; competitive tight-binding fit
Procedure, shortened: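 Radiometric assay of 33P transfer from 33P-ATP (35 μM) to polyE4Y (0.5 mg/mL) by 1.0 nM c-Met in 100 mM HEPES pH 7.5, 10 mM MgCl2, 25 mM NaCl, 0.01% BSA, 1 mM DTT. TCA-quenched after 20 min, filter-captured, scintillation-counted; Ki fitted to a competitive tight-binding model.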

Sequence of c-MET (P08581 25-1390): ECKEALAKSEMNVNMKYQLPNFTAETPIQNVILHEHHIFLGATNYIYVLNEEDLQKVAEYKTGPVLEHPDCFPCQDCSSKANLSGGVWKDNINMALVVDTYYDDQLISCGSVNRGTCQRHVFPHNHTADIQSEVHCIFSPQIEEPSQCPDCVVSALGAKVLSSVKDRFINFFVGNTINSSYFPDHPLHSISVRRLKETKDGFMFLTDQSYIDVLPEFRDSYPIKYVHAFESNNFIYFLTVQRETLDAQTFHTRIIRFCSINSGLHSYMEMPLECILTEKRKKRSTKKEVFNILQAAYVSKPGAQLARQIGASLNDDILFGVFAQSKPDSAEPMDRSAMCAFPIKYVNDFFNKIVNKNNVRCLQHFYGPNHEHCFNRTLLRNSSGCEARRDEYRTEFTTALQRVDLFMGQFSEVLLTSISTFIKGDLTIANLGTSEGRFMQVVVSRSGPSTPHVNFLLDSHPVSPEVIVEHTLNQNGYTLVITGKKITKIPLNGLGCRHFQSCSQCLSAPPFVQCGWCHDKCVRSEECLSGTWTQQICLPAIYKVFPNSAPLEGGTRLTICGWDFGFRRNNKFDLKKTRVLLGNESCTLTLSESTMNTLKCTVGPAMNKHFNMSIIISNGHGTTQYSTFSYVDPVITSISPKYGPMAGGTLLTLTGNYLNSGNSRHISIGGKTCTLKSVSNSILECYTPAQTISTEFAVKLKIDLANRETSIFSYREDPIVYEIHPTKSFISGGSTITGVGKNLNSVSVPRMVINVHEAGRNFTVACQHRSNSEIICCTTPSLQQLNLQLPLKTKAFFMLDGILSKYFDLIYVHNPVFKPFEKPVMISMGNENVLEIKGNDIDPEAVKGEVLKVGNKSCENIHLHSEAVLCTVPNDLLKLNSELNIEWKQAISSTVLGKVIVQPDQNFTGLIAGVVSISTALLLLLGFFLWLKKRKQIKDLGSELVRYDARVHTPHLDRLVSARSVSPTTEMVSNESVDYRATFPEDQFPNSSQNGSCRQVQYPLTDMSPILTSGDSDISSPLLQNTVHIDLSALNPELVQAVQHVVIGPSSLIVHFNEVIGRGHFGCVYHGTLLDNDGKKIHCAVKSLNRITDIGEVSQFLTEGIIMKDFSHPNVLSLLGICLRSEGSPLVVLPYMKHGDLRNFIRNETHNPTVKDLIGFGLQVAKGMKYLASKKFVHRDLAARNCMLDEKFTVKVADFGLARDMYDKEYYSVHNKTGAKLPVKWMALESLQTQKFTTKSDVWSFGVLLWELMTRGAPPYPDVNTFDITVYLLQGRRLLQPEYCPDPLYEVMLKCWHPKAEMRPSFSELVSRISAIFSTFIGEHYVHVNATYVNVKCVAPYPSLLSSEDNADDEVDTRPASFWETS

Row | SMILES | Ki
1 | CN1CCN(c2ccc(-c3cnc(N)c(-c4nncn4-c4cccc(F)c4F)c3)cc2)CC1 [I-A-41] | 100 to 1000 nM
2 | Nc1ncc(-c2cnn(CC(O)CO)c2)cc1-c1nc2cnccc2n1-c1cccc(F)c1F [I-D-10] | ≤ 100 nM
3 | Nc1ncc(-c2ccc(CN3CCCC3)cc2)cc1-c1nnnn1-c1cccc(Cl)c1 [I-A-356] | 100 to 1000 nM
4 | Nc1ncc(-c2cnn(CC3COCO3)c2)cc1-c1nnnn1-c1cccc(F)c1F (stereo not drawn) [I-A-433] | ≤ 100 nM
5 | Cn1cnc(-c2cnc(N)c(-c3nnnn3-c3cccc(F)c3F)c2)c1 [I-A-495] | 100 to 1000 nM
6 | Nc1ncc(C2=CCN(C(=O)C3CC3)CC2)cc1-c1nnnn1-c1cccc(F)c1F [I-A-523] | ≤ 100 nM
7 | Nc1ncc(-c2cnn(C3CCNCC3)c2)cc1-c1nnnn1-c1cc(F)cc(F)c1 [I-A-627] | 100 to 1000 nM
8 | CC(C)(C)NC(=O)Nc1cccc(-c2cnc(N)c(-c3nnnn3-c3cccc(F)c3F)c2)c1 [I-A-328] | ≤ 100 nM
9 | Nc1ncc(-c2cccc(F)c2)cc1-c1nnnn1-c1cccc(F)c1F [I-A-314] | ≤ 100 nM
10 | Nc1ncc(-c2ccc(N3CCNCC3)cc2)cc1-c1nc2cccnc2n1-c1cccc(Cl)c1F [I-D-16] | 100 to 1000 nM
11 | Nc1ncc(-c2cccnc2)cc1-c1ncsc1-c1cccc(Cl)c1Cl [I-C-8, 3-(5-(2,3-Dichlorophenyl)thiazol-4-yl)-5-(pyridin-3-yl)pyridin-2-amine] | 100 to 1000 nM
12 | CC(C)(C)NC(=O)Nc1ccc(-c2cnc(N)c(-c3nnnn3-c3cccc(F)c3F)c2)cc1 [I-A-332] | ≤ 100 nM
13 | CC(=O)N1CCC(n2cc(-c3cnc(N)c(-c4nnnn4-c4cccc(F)c4F)c3)cn2)CC1 [I-A-455] | ≤ 100 nM
14 | CN(C)CCCNC(=O)c1ccc(-c2cnc(N)c(-c3nnnn3-c3cccc(Cl)c3Cl)c2)cc1 [I-A-125] | ≤ 100 nM
15 | CN(C)CCCN(C)S(=O)(=O)c1ccc(-c2cnc(N)c(-c3nnnn3-c3cccc(F)c3F)c2)cc1 [I-A-159] | ≤ 100 nM
16 | CN1CCN(Cc2ccc(-c3cnc(N)c(-c4nncn4-c4cccc(F)c4F)n3)cc2)CC1 [I-A-6] | ≤ 100 nM
17 | Nc1ncc(-c2ccc(NC(=O)Nc3cccs3)cc2)cc1-c1nnnn1-c1cccc(F)c1F [I-A-282] | 100 to 1000 nM
18 | COc1ccc(OC)c(-c2cnc(N)c(-c3nnnn3-c3cccc(F)c3F)c2)c1 [I-A-306] | 100 to 1000 nM

Row | SMILES | Ki
19 | Nc1ncc(-c2cccc(NC(=O)NC3CCCCO3)c2)cc1-c1nnnn1-c1cccc(F)c1F (stereo not drawn) [I-A-273] | ≤ 100 nM
20 | Nc1ncc(-c2cnn(C3CCNCC3)c2)cc1-c1nnnn1-c1cc(Cl)ccc1Cl [I-A-636] | 100 to 1000 nM
21 | Nc1ncc(-c2cnn(C3CCN(C4CCC4)CC3)c2)cc1-c1nnnn1-c1cccc(F)c1F [I-A-451] | ≤ 100 nM
22 | NCc1ccc(-c2cnc(N)c(-c3nnnn3-c3cccc(F)c3F)c2)cn1 [I-A-155] | 100 to 1000 nM
23 | CC(C)CN1CCC(n2cc(-c3cnc(N)c(-c4nnnn4-c4cccc(Cl)c4F)c3)cn2)CC1 [I-A-475] | ≤ 100 nM
24 | CN(C)CCCNC(=O)c1ccc(-c2cnc(N)c(-c3nnnn3-c3cccc(F)c3F)c2)cc1 [I-A-136] | ≤ 100 nM
25 | Nc1ncc(C2=CCN(C(=O)C3CCCOC3)CC2)cc1-c1nnnn1-c1cccc(F)c1F (stereo not drawn) [I-A-522] | ≤ 100 nM
26 | CC(=O)N1CCc2cc(-c3cnc(N)c(-c4nnnn4-c4cccc(F)c4F)c3)ccc21 [I-A-182] | ≤ 100 nM
27 | CC(=O)N1CCC(n2cc(-c3cnc(N)c(-c4nncn4-c4cccc(Cl)c4F)c3)cn2)CC1 [I-A-450] | ≤ 100 nM
28 | CN(C)CCNC(=O)c1ccc(-c2cnc(N)c(-c3nnnn3-c3cccc(F)c3F)c2)cc1 [I-A-135] | ≤ 100 nM
29 | Nc1ncc(-c2ccc(N3CCCC3)nc2)nc1-c1nncn1-c1cccc(F)c1F [I-A-4] | 100 to 1000 nM
30 | Nc1ncc(-c2ccc(-n3ccnc3)nc2)cc1-c1nnnn1-c1cccc(F)c1F [I-A-128] | ≤ 100 nM
31 | Nc1ncc(-c2cnn(C3CCN(CCF)CC3)c2)cc1-c1nncn1-c1cccc(Cl)c1F [I-A-459] | ≤ 100 nM
32 | CC(=O)Nc1ccc(-c2cnc(N)c(-c3nnnn3-c3cc(Cl)ccc3C)c2)cc1 [I-A-576] | 100 to 1000 nM
33 | Nc1ncc(-c2ccc(CN3CCCC3)cc2)cc1-c1nnc(O)n1-c1cccc(F)c1F [I-A-362] | 100 to 1000 nM
34 | CC(C)(C)OC(=O)N1CC=C(c2cnc(N)c(-c3nnnn3-c3cccc(F)c3F)c2)CC1 [I-A-506] | ≤ 100 nM
35 | Nc1ncc(-c2cnn(C3CCNCC3)c2)cc1-c1nc2cccnc2n1-c1cccc(Cl)c1F [I-D-15] | 100 to 1000 nM

Results, then the compound that gave them:

Row | Ki | SMILES
36 | ≤ 100 nM | Nc1ncc(-c2ccc(O)cc2)cc1-c1nnnn1-c1cccc(F)c1F [I-A-144]
37 | 100 to 1000 nM | Nc1ncc(-c2nccs2)cc1-c1nnnn1-c1cccc(F)c1F [I-A-539]
38 | ≤ 100 nM | Nc1ncc(-c2ccc(OCCO)cc2)cc1-c1nnnn1-c1cccc(F)c1F [I-A-283]
39 | ≤ 100 nM | Nc1ncc(-c2cccc(CO)c2)cc1-c1nnnn1-c1cccc(F)c1F [I-A-231]
40 | 100 to 1000 nM | CC(=O)Nc1cccc(-c2cnc(N)c(-c3nnnn3-c3cc(F)ccc3F)c2)c1 [I-A-567]
41 | ≤ 100 nM | Nc1ncc(-c2ccc(CN3CCCC3)c(O)c2)cc1-c1nnnn1-c1cccc(F)c1F [I-A-391]
42 | 100 to 1000 nM | Nc1ncc(-c2ccncc2)cc1-c1nnnn1-c1cccc(F)c1F [I-A-490]
43 | ≤ 100 nM | Nc1ncc(-c2cnn(C3CCN(CC4CCCC4)CC3)c2)cc1-c1nnnn1-c1cccc(Cl)c1F [I-A-474]
44 | 100 to 1000 nM | Nc1ncc(-c2cnn(C3CCN(C(=O)C(F)(F)F)CC3)c2)cc1-c1nnnn1-c1cccc(F)c1Cl [I-A-395]
45 | 100 to 1000 nM | Nc1ncc(-c2ccc3c(c2)OC(F)(F)O3)cc1-c1nnnn1-c1cccc(F)c1F [I-A-285]
46 | ≤ 100 nM | CN(C)Cc1ccc(-c2cnc(N)c(-c3nnnn3-c3c(Cl)cccc3Cl)c2)cc1 [I-A-629]
47 | ≤ 100 nM | Nc1ncc(-c2ccc(C(=O)NC3CC3)cc2)cc1-c1nnnn1-c1cccc(F)c1F [I-A-137]
48 | 100 to 1000 nM | COc1ccc(F)cc1-n1nnnc1-c1cc(-c2ccc(NC(C)=O)cc2)cnc1N [I-A-585]
49 | 100 to 1000 nM | Nc1ncc(-c2nc3c(s2)CNCC3)cc1-c1nnnn1-c1cccc(F)c1F [I-A-465]
50 | ≤ 100 nM | Nc1ncc(-c2ccc(CO)cc2)cc1-c1nnnn1-c1cccc(Cl)c1Cl [I-A-90]
51 | 100 to 1000 nM | Nc1ncc(-c2cnn(C(c3ccccc3)(c3ccccc3)c3ccccc3)c2)cc1-c1nnnn1-c1cccc(F)c1F [I-A-365]
52 | ≤ 100 nM | CN1CCN(Cc2ccc(-c3cnc(N)c(-c4nnnn4-c4cccc(F)c4F)n3)cc2)CC1 [I-A-50]
53 | ≤ 100 nM | Nc1ncc(-c2ccc(CN3CCC[C@H]3CO)cc2)cc1-c1nnnn1-c1cccc(F)c1F [I-A-133]
54 | 100 to 1000 nM | COc1c(F)cccc1-n1nnnc1-c1cc(-c2cnn(C3CCNCC3)c2)cnc1N [I-A-638]
55 | 100 to 1000 nM | Nc1ncc(-c2cccnc2)cc1-c1nnnn1-c1c(F)cccc1Cl [I-A-617]
56 | ≤ 100 nM | CCN1CCC[C@@H](n2cc(-c3cnc(N)c(-c4nnnn4-c4cccc(Cl)c4Cl)c3)cn2)C1 [I-A-499]
57 | ≤ 100 nM | Nc1ncc(-c2cc(Cl)c(N)c(Cl)c2)cc1-c1nnnn1-c1cccc(F)c1F [I-A-287]
58 | ≤ 100 nM | Nc1ncc(-c2cc(F)ccc2O)cc1-c1nnnn1-c1cccc(F)c1F [I-A-292]

Row | Ki | SMILES
59 | ≤ 100 nM | Nc1ncc(-c2cnn([C@H]3CCOC3)c2)cc1-c1nnnn1-c1cccc(F)c1F [I-A-425]
60 | 100 to 1000 nM | CC(=O)Nc1ccc(-c2cnc(N)c(-c3nnnn3-c3c(F)cccc3F)c2)cc1 [I-A-607]
61 | 100 to 1000 nM | CCNC(=O)Nc1nc2cc(-c3cnc(N)c(-c4nnnn4-c4cccc(F)c4F)c3)c(F)cc2[nH]1 [I-A-140]
62 | ≤ 100 nM | Nc1ncc(-c2cnn([C@@H]3CCNC3)c2)cc1-c1nnnn1-c1cccc(F)c1F [I-A-404]
63 | ≤ 100 nM | Nc1ncc(-c2cnn([C@H]3CCCNC3)c2)nc1-c1nnnn1-c1cccc(F)c1F [I-A-655]
64 | 100 to 1000 nM | CC(=O)Nc1ccc(-c2cnc(N)c(-c3nncn3-c3cccc(Cl)c3Cl)c2)cc1 [I-A-76]
65 | ≤ 100 nM | Nc1ncc(-c2ccc3c(c2)CC(=O)N3)cc1-c1nnnn1-c1cccc(F)c1F [I-A-188]
66 | ≤ 100 nM | CN1CCC[C@H]1C(=O)N1CC=C(c2cnc(N)c(-c3nnnn3-c3cccc(F)c3F)c2)CC1 [I-A-503]
67 | ≤ 100 nM | Cn1cc(-c2cnc(N)c(-c3nnnn3-c3cccc(F)c3F)c2)cn1 [I-A-249]
68 | 100 to 1000 nM | CN(Cc1ccc(-c2cnc(N)c(-c3nnnn3-c3cccc(Cl)c3Cl)c2)cc1)Cc1cccnc1 [I-A-107]
69 | 100 to 1000 nM | CCNC(=O)Nc1nc2cc(-c3cnc(N)c(-c4nnnn4-c4cccc(F)c4F)c3)c(OC)cc2[nH]1 [I-A-142]
70 | 100 to 1000 nM | Nc1ncc(-c2nc3c(s2)CNCC3)cc1-c1nnnn1-c1cccc(Cl)c1Cl [I-A-467]
71 | ≤ 100 nM | Nc1ncc(-c2ccn(C3CCNCC3)c2)cc1-c1nnnn1-c1cccc(F)c1F [I-A-464]
72 | 100 to 1000 nM | CN1CCN(C(=O)Nc2cccc(-c3cnc(N)c(-c4nnnn4-c4cccc(F)c4F)c3)c2)CC1 [I-A-270]
73 | ≤ 100 nM | Nc1ncc(-c2cnn([C@H]3CCNC3)c2)cc1-c1nnnn1-c1cccc(Cl)c1Cl [I-A-413]
74 | ≤ 100 nM | CC(=O)Nc1ccc(-c2cnc(N)c(-c3nnnn3-c3cccc(F)c3F)c2)s1 [I-A-263]
75 | ≤ 100 nM | CN(C)Cc1ccc(-c2cnc(N)c(-c3nc4cnccc4n3-c3cccc(F)c3F)c2)cc1 [I-D-4]
76 | ≤ 100 nM | COc1cc(O)ccc1-c1cnc(N)c(-c2nnnn2-c2cccc(F)c2F)c1 [I-A-220]
77 | ≤ 100 nM | Nc1ncc(-c2cc3c(s2)CCNCC3)cc1-c1nnnn1-c1cccc(F)c1F [I-A-430, 3-(1-(2,3-Difluorophenyl)-1H-tetrazol-5-yl)-5-(5,6,7,8-tetrahydro-4H-thieno[3,2-d]azepin-2-yl)pyridin-2-amine]
78 | ≤ 100 nM | Nc1ncc(-c2ccc(CN3CCCC3)c(F)c2)cc1-c1nnnn1-c1cccc(F)c1F [I-A-213]
79 | 100 to 1000 nM | Nc1ncc(-c2cccc(C(F)(F)F)c2)cc1-c1nncn1-c1cccc(F)c1F [I-A-116]
80 | 100 to 1000 nM | Nc1ncc(-c2ccccn2)cc1-c1nnnn1-c1cccc(F)c1F [I-A-493]
81 | ≤ 100 nM | Nc1ncc(C2=CCN(C(=O)C3CCOCC3)CC2)cc1-c1nnnn1-c1cccc(F)c1F [I-A-521]
